Reference: patent US20250376498A1, “FUSION PROTEINS COMPRISING AN IMPROVED GLP-1 RECEPTOR AGONIST AND USES THEREOF” (Guangzhou Innogen Pharmaceutical Group Co., Ltd., priority 2022, published 2025)
Where two headings read alike, the source gives them in different places.

How the values were obtained:
[1] = marketed drugs, refs [22], [24]; cited from earlier work
[2] = cited from earlier work
[3] = cited from earlier work; remark: listed apart in the source
[4] = tested on: db/db mice; experiment: Multiple subcutaneous injections in db/db mice (type 2 diabetes model); assay type: in vivo; settings: db/db mice
Experimental: The impact of multiple subcutaneous injections of YN-011 on reducing blood glucose levels was evaluated in db/db mice (Jackson Laboratories, 000642). The mice were kept under normal lighting conditions (12 hours light/12 hours dark) and at room temperature, with free access to food (normal rodent chow) and water. Db/db mice lack leptin receptors and spontaneously develop obesity, hyperglycemia, and pancreatic B-cell atrophy by 4 weeks of age.
Sixty affected db/db mice (33-45g) were divided into six groups of 10 mice each (5 males and 5 females) and administered 0 (PBS buffer control), 0.15, 0.3, 0.6, or 1.2 mg/kg of YN-011, or 0.3 mg/kg of Degludec via subcutaneous injection. Another group of wild-type mice (17-22g) with the same genetic background served as the normal control. The administration frequency was once every 3 days (Q3D), with a total of 9 doses administered over a period of 26 days. […] The duration of the hypoglycemic effect ranged from 34 to 72 hours within the dose range of 0.15-1.2 mg/kg.

[5] = Determination of oxidation levels by LC-MS/MS; assay type: physicochemical
Experimental: Following the protein oxidation measurement method described in Example 2 or by referring to Bettinger et al., the oxidation levels were determined. It was observed that the GLP-1 fusion protein YN-011 of the present invention was not oxidized at position W31, whereas the oxidation level of […] at the same position exceeded 5%. The oxidation occurred at the location indicated by the rectangular box in the structure of W31.

[6] = dulaglutide 1.5 mg, 26 weeks (Shi et al.)
[7] = dulaglutide 1.5 mg in combination with metformin, 40 weeks (Dungan et al.)
[8] = semaglutide 1 mg, 30 weeks (Sorli et al.)

Compound: Dulaglutide: DPP-IV protected GLP-1 analog fused with an IgG4/Fc fragment
- half-life / elimination half-life [1]: 4.7 to 5.5 days
- incidence of hypoglycemia ([2]; dulaglutide 0.75 mg, 26 weeks (Shi et al.)): 4.1%
- incidence of hypoglycemia [2, 6]: 6.3%
- incidence of nausea [2, 6]: 9.5%
- reduction in HbA1c levels [2, 6]: 1.46%
- incidence of hypoglycemia [3, 7]: 9%
- incidence of nausea [3, 7]: 20%
- reduction in FPG levels [3, 7]: 1.93%
- reduction in HbA1c levels [3, 7]: 1.42%

Compound: CCCCCCCCCCCCCCCC(=O)N[C@@H](CCC(=O)NCCCC[C@H](NC(=O)[C@H](C)NC(=O)[C@H](C)NC(=O)[C@H](CCC(N)=O)NC(=O)CNC(=O)[C@H](CCC(=O)O)NC(=O)[C@H](CC(C)C)NC(=O)[C@H](Cc1ccc(O)cc1)NC(=O)[C@H](CO)NC(=O)[C@H](CO)NC(=O)[C@@H](NC(=O)[C@H](CC(=O)O)NC(=O)[C@H](CO)NC(=O)[C@@H](NC(=O)[C@H](Cc1ccccc1)NC(=O)[C@@H](NC(=O)CNC(=O)[C@H](CCC(=O)O)NC(=O)[C@H](C)NC(=O)[C@@H](N)Cc1cnc[nH]1)[C@@H](C)O)[C@@H](C)O)C(C)C)C(=O)N[C@@H](CCC(=O)O)C(=O)N[C@@H](Cc1ccccc1)C(=O)N[C@H](C(=O)N[C@@H](C)C(=O)N[C@@H](Cc1c[nH]c2ccccc12)C(=O)N[C@@H](CC(C)C)C(=O)N[C@H](C(=O)N[C@@H](CCCNC(=N)N)C(=O)NCC(=O)N[C@@H](CCCNC(=N)N)C(=O)NCC(=O)O)C(C)C)[C@@H](C)CC)C(=O)O [liraglutide]
- incidence of nausea ([2]; liraglutide 1 mg, 24 weeks (Shuai et al.)): 5.6%
- incidence of nausea ([2]; liraglutide 3 mg, 24 weeks (Shuai et al.)): 10%

Compound: Degludec [reference compound]
- average rate of fasting blood glucose reduction ([4]; 0.3 mg/kg Q3D sc, average over measurement time points): 63.6%
- fasting blood glucose levels versus model control group ([4]; Q3D sc, YN-011 all dose groups (P<0.001), Degludec 0.3 mg/kg): significant decrease
- oxidation level at position M253 [5]: exceeding 5%
- oxidation level at position W31 [5]: exceeded 5%

Compound: Semaglutide
- half-life / elimination half-life [1]: 5.7 to 6.7 days
- incidence of nausea ([2]; semaglutide 0.5 mg, 30 weeks (Sorli et al.)): 20%
- incidence of nausea [2, 8]: 24%
- reduction in HbA1c levels [2, 8]: 1.55%
- incidence of nausea ([3]; semaglutide 1 mg in combination with metformin, 30 weeks (Ji et al.)): 13.4%
